From PubChem BioAssay (NCI)
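Five compound concentrations were applied to cells in 96-well plates for 48 hours; endpoints were derived by simple linear interpolation of the resulting dose-response curve. GI50 = concentration required for 50% inhibition of growth. Definition used: TGI = concentration required for complete inhibition of growth.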

Experiments:
Test in all cases: DTP human tumour cell line panel, 48 h
MOLT-4 leukemia = test system: MOLT-4 leukemia
SF-295 CNS = test system: SF-295 CNS
COLO 205 colon = test system: COLO 205 colon
OVCAR-4 ovarian = test system: OVCAR-4 ovarian
U251 CNS = test system: U251 CNS
LOX IMVI melanoma = test system: LOX IMVI melanoma
SW-620 colon = test system: SW-620 colon
MALME-3M melanoma = test system: MALME-3M melanoma
CCRF-CEM leukemia = test system: CCRF-CEM leukemia
MDA-MB-231 breast = test system: MDA-MB-231 breast

| Compound | TGI (MOLT-4 leukemia) [µM] | TGI (SF-295 CNS) [µM] | TGI (COLO 205 colon) [µM] | TGI (OVCAR-4 ovarian) [µM] | TGI (U251 CNS) [µM] | TGI (LOX IMVI melanoma) [µM] | TGI (SW-620 colon) [µM] | TGI (MALME-3M melanoma) [µM] | TGI (CCRF-CEM leukemia) [µM] | GI50 (MOLT-4 leukemia) [µM] | GI50 (SF-295 CNS) [µM] | GI50 (OVCAR-4 ovarian) [µM] | GI50 (LOX IMVI melanoma) [µM] | GI50 (SW-620 colon) [µM] | GI50 (MALME-3M melanoma) [µM] | GI50 (CCRF-CEM leukemia) [µM] | GI50 (COLO 205 colon) [µM] | GI50 (U251 CNS) [µM] | TGI (MDA-MB-231 breast) [µM] | GI50 (MDA-MB-231 breast) [µM] |
| --- | --- | --- | --- | --- | --- | --- | --- | --- | --- | --- | --- | --- | --- | --- | --- | --- | --- | --- | --- | --- |
| O=C(c1ccccc1)c1nnc(C(=O)c2ccccc2)nn1 | > 344 | > 344 | > 344 | > 344 | > 344 | > 344 | > 344 | > 344 | > 344 | – | – | – | – | – | – | – | – | – | – | – |
| NC(CCC(=O)NC(CSSCCCCS(=O)O)C(=O)NCC(=O)O)C(=O)O (centres undefined) | > 100 | > 100 | > 100 | > 100 | > 100 | > 100 | > 100 | > 100 | > 100 | – | – | – | – | – | – | – | – | – | – | – |
| O=c1/c(=C/c2ccco2)sc2nc3ccccc3n12 | > 100 | > 100 | > 100 | > 100 | > 10 | > 100 | > 100 | > 100 | > 100 | > 100 | > 100 | > 100 | > 100 | > 100 | > 100 | > 100 | – | – | – | – |
| COc1ccc(/C=C/CN(C)CCc2ccccc2)cc1OC | > 100 | > 100 | > 100 | – | > 100 | – | > 100 | > 100 | – | – | – | – | – | – | – | – | – | – | – | – |
| CC(C)C(=O)NC(=S)Nc1ccc([N+](=O)[O-])cc1C#N | > 100 | > 100 | 52.7 | > 100 | > 100 | > 100 | > 100 | > 100 | > 100 | – | – | – | – | – | – | – | – | – | – | – |
| CCOC(=O)[C]1([Bi]([CH3])[CH3])N=NC(C(=O)OC)=C1C(=O)OC (centres undefined) | 63.9 | > 100 | 35.9 | > 100 | > 100 | – | 32.8 | 31.8 | 37.6 | 23.3 | > 100 | 42.4 | – | 16.6 | 17 | 11.3 | 19.8 | > 100 | – | – |
| O=C1CCC(=O)N2CCCCN12 | > 100 | > 100 | > 100 | > 100 | > 100 | > 100 | > 100 | > 100 | > 100 | – | – | – | – | – | – | – | – | – | – | – |
| C/C(CC(=O)Nc1cc(Cl)c(Cl)cc1Cl)=N\NC(N)=O | > 100 | > 100 | > 100 | – | > 100 | > 100 | > 100 | > 100 | > 100 | – | – | – | – | – | – | – | – | – | – | – |
| Cc1ccc2c(c1)[n+]([O-])c(N)n[n+]2[O-] | > 100 | > 100 | > 100 | > 100 | > 100 | > 100 | > 100 | – | > 100 | – | – | – | – | – | – | – | – | – | > 100 | – |
| O=C1O[C@@H](c2ccc3c(c2)OCO3)C2C(=O)O[C@@H](c3ccc4c(c3)OCO4)C12 (some centres undefined) | > 100 | > 100 | > 100 | > 100 | > 100 | > 100 | > 100 | – | > 100 | – | – | – | – | – | – | – | – | – | – | – |
| CCOC(=O)C1=C(OC(OCC)C(CC)[Se]c2ccccc2)CCCC1 (centres undefined) | 52.1 | 55.6 | > 100 | 33 | 31 | 18.7 | – | 97.7 | 38.7 | – | – | – | – | – | – | – | – | – | – | – |
| COc1ccc(-c2cnnc3c(-c4cccc(C(F)(F)F)c4)cnn23)cc1 | > 100 | – | > 100 | – | > 100 | > 100 | > 100 | – | > 100 | > 100 | – | – | > 100 | > 100 | – | > 100 | > 100 | 3.61 | > 100 | 3.55 |
| O=C(/C=C/c1c(O)ccc2ccccc12)c1cccc(O)c1 | > 100 | > 100 | > 100 | > 100 | > 100 | > 72.1 | > 100 | > 100 | > 100 | – | – | – | – | – | – | – | – | – | – | – |
| O=c1c2cc([N+](=O)[O-])ccc2sc2ccsc12 | > 100 | > 100 | > 100 | > 100 | > 100 | > 100 | > 100 | > 100 | > 100 | – | – | – | – | – | – | – | – | – | – | – |
| NC(=O)C(=O)N/N=C(\CC1(O)C(=O)Nc2ccccc21)c1ccc2ccccc2c1 (centres undefined) | 53.5 | > 100 | 41.1 | > 100 | 76.4 | 85.5 | > 100 | > 100 | 48.5 | – | – | – | – | – | – | – | – | – | – | – |
| CCCCN=C(NC#N)NCCCC | > 100 | > 100 | 98.9 | > 100 | > 100 | – | 42 | > 100 | – | – | – | – | – | – | – | – | – | – | – | – |
| CC(=O)CNC(=O)OC(C)(C)C | > 100 | > 100 | – | > 100 | > 100 | – | > 100 | > 100 | > 100 | – | – | – | – | – | – | – | – | – | – | – |
| O=C(O)CNS(=O)(=O)c1ccc(NCc2ccccc2)cc1 | > 100 | – | > 100 | > 100 | > 100 | > 100 | > 100 | > 100 | > 100 | – | – | – | – | – | – | – | – | – | – | – |
| N#Cc1cc([N+](=O)[O-])ccc1NC(=O)C(=O)Nc1n[nH]c(N)n1 | > 100 | – | > 100 | > 100 | > 100 | > 100 | > 100 | > 100 | > 100 | – | – | – | – | – | – | – | – | – | – | – |
| COC(=O)C1Cc2c(n(Cc3ccccc3)c3ccccc23)C(CCC(=O)O)N1C(C)C (centres undefined) | > 100 | > 100 | > 100 | > 100 | > 100 | > 100 | > 100 | > 100 | > 100 | – | – | – | – | – | – | – | – | – | – | – |
| COc1cc(C2NC(=O)c3ccccc3N2)ccc1OCCCCCOc1c(OC)cc(C2=NOC(c3cc(OC)c(OC)c(OC)c3)C2)cc1OC (centres undefined) | > 100 | > 100 | > 100 | > 100 | > 100 | > 100 | > 100 | – | > 77.6 | 0.57 | 2.54 | 0.417 | 16.7 | 14.7 | – | 0.627 | > 59 | 19.6 | > 75.4 | 14.8 |
| CSC(C1c2ccccc2N(c2ccc(C)cc2)C2=NC(=O)N(C)C(=O)C21Cl)S(=O)(=O)c1ccc(C)cc1 (centres undefined) | 32 | 62.4 | 36.6 | 34.6 | 38.9 | 40.3 | 85.9 | 32.6 | 38 | – | – | – | – | – | – | – | – | – | – | – |
